{"source": "patent US6313090A", "about": "“Methods for treating parasitic infection using thiopeptides” (The United States of America as represented by the …, priority 2000, dated 2001)", "system": "MDBKF5D2 cell monolayers", "assay": "Toxicity testing assay (MTS/PMS, OD 490 nm)", "assay_type": "cell-based", "description": "(§1) Toxicity Testing Assay. 200 μl of medium containing drug at the above-mentioned concentrations and positive control preparations [paromomycin/DMSO (2 mg/ml/0.2%)] were introduced into two wells of a 96 well plate containing confluent MDBKF5D2 cell monolayers (ATCC accession number CCL-22) infected with intact C. parvum GCH1 oocysts (5.0×10^4 per well) (43) and two wells without monolayers. The drug was incubated on the monolayers at 37° C. and 8% CO2. At 48 hours, MTS (Owen's solution) and PMS were added to each well at concentrations of 333 μg/ml and 25 μM respectively. The plate was returned to the incubator in the dark to develop for two hours. At two hours, 100 μl of each supernatant was transferred to a new microtiter plate and the optical density (OD) was read in an ELISA plate reader at 490 nm.\nPercent toxicity was calculated by subtracting the mean drug OD from the medium OD, divided by the medium OD, all of which was then multiplied by 100, as shown in the equation below. Cytotoxicity scores were assigned as follows: 0-5% toxicity=0, 6-25% toxicity=1, 26-50% toxicity=2, 51-75% toxicity=3, and 76-100% toxicity=4. As a standard, cytotoxicity scores of 0 or, 1 were considered acceptable levels of toxicity. Toxicity scores of 2, 3, or 4 were considered as high levels of toxicity to the cell monolayer. [formula]\nas §1, with “containing drugs” for “containing drug”, “monolayers” for “monolayers (ATCC accession number CCL-22)”, “well)” for “well) (43)”, “and 25μM” for “and 25 μM”\nPercent toxicity was calculated by subtracting the mean drug OD from the medium OD, divided by the medium OD, all of which was then multiplied by 100, as shown in the equation below. Cytotoxicity scores were assigned as follows: 0-5% toxicity=0, 6-25% toxicity=1, 26-50% toxicity=2, 51-75% toxicity=3, and 76-100% toxicity=4. As a standard, cytotoxicity scores of 0 or 1 were considered acceptable levels of toxicity. Toxicity scores of 2, 3, or 4 were considered as high levels of toxicity to the cell monolayer. [formula]\nas §1, with “monolayers” for “monolayers (ATCC accession number CCL-22)”, “well)” for “well) (43)”, “25μM” for “25 μM”", "key": {"[1]": {"settings": "Table 4 Washed at 4 hours, 100 μg/ml"}, "[2]": {"settings": "Table 4 Washed at 4 hours, 200 μg/ml"}, "[3]": {"settings": "Table 4 Washed at 4 hours, 400 μg/ml"}, "[4]": {"settings": "Table 4 Washed at 4 hours, 800 μg/ml"}, "[5]": {"settings": "Table 5, 800 μg/ml, drug added at 0 hrs"}, "[6]": {"settings": "Table 5, 800 μg/ml, drug added at 2 hrs"}, "[7]": {"settings": "Table 5, 800 μg/ml, drug added at 4 hrs"}, "[8]": {"settings": "Table 5, 800 μg/ml, drug added at 8 hrs"}, "[9]": {"settings": "Table 5, 800 μg/ml, drug added at 24 hrs"}}, "data": [{"smiles": "C=C(NC(=O)C(=C)NC(=O)c1csc(C2=N[C@@H]3c4csc(n4)[C@H]4NC(=O)c5csc(n5)[C@H]([C@](C)(O)[C@@H](C)O)NC(=O)[C@H]5CSC(=N5)/C(=C/C)NC(=O)[C@H]([C@@H](C)O)NC(=O)c5csc(n5)[C@]3(CC2)NC(=O)[C@H](C)NC(=O)C(=C)NC(=O)[C@H](C)NC(=O)[C@H]([C@@H](C)CC)N[C@@H]2C=Cc3c([C@H](C)O)cc(nc3[C@H]2O)C(=O)O[C@@H]4C)n1)C(N)=O", "note": "[Thiostrepton, thiostrepton]", "values": [{"measurement": "Tox. O.D.", "setting": "Table 1, 1 μg/ml", "result": ".941"}, {"measurement": "Toxicity Percent", "setting": "Table 1, 1 μg/ml", "result": 14.50, "unit": "%"}, {"measurement": "Toxicity Score", "setting": "Table 1, 1 μg/ml", "result": "1 (6-25% toxicity=1)"}, {"measurement": "Tox. O.D.", "setting": "Table 1, 10 μg/ml", "result": ".991"}, {"measurement": "Toxicity Percent", "setting": "Table 1, 10 μg/ml", "result": 9.95, "unit": "%"}, {"measurement": "Toxicity Score", "setting": "Table 1, 10 μg/ml", "result": "1 (6-25% toxicity=1)"}, {"measurement": "Tox. O.D.", "setting": "Table 1, 100 μg/ml", "result": ".994"}, {"measurement": "Toxicity Percent", "setting": "Table 1, 100 μg/ml", "result": 9.64, "unit": "%"}, {"measurement": "Toxicity Score", "setting": "Table 1, 100 μg/ml", "result": "1 (6-25% toxicity=1)"}, {"measurement": "Tox. O.D.", "setting": "Table 1, .1 μg/ml", "result": ".912"}, {"measurement": "Toxicity Percent", "setting": "Table 1, .1 μg/ml", "result": 17.14, "unit": "%"}, {"measurement": "Toxicity Score", "setting": "Table 1, .1 μg/ml", "result": "1 (6-25% toxicity=1)"}, {"measurement": "Tox. O.D.", "setting": "Table 2, 100 μg/ml", "result": ".915"}, {"measurement": "Toxicity Percent", "setting": "Table 2, 100 μg/ml", "result": 9.14, "unit": "%"}, {"measurement": "Toxicity Score", "setting": "Table 2, 100 μg/ml", "result": "1 (6-25% toxicity=1)"}, {"measurement": "Tox. O.D.", "setting": "Table 2, 200 μg/ml", "result": ".820"}, {"measurement": "Toxicity Percent", "setting": "Table 2, 200 μg/ml", "result": 18.62, "unit": "%"}, {"measurement": "Toxicity Score", "setting": "Table 2, 200 μg/ml", "result": "1 (6-25% toxicity=1)"}, {"measurement": "Tox. O.D.", "setting": "Table 2, 400 μg/ml", "result": ".799"}, {"measurement": "Toxicity Percent", "setting": "Table 2, 400 μg/ml", "result": 20.71, "unit": "%"}, {"measurement": "Toxicity Score", "setting": "Table 2, 400 μg/ml", "result": "1 (6-25% toxicity=1)"}, {"measurement": "Tox. O.D.", "setting": "Table 2, 800 μg/ml", "result": ".676"}, {"measurement": "Toxicity Percent", "setting": "Table 2, 800 μg/ml", "result": 32.87, "unit": "%"}, {"measurement": "Toxicity Score", "setting": "Table 2, 800 μg/ml", "result": "2 (26-50% toxicity=2)"}, {"measurement": "Tox. O.D.", "setting": "Table 3 Unwashed, 100 μg/ml", "result": ".969"}, {"measurement": "Toxicity Percent", "setting": "Table 3 Unwashed, 100 μg/ml", "result": 7.10, "unit": "%"}, {"measurement": "Toxicity Score", "setting": "Table 3 Unwashed, 100 μg/ml", "result": "1 (6-25% toxicity=1)"}, {"measurement": "Tox. O.D.", "setting": "Table 3 Unwashed, 200 μg/ml", "result": ".827"}, {"measurement": "Toxicity Percent", "setting": "Table 3 Unwashed, 200 μg/ml", "result": 20.67, "unit": "%"}, {"measurement": "Toxicity Score", "setting": "Table 3 Unwashed, 200 μg/ml", "result": "1 (6-25% toxicity=1)"}, {"measurement": "Tox. O.D.", "setting": "Table 3 Unwashed, 400 μg/ml", "result": ".788"}, {"measurement": "Toxicity Percent", "setting": "Table 3 Unwashed, 400 μg/ml", "result": 24.41, "unit": "%"}, {"measurement": "Toxicity Score", "setting": "Table 3 Unwashed, 400 μg/ml", "result": "1 (6-25% toxicity=1)"}, {"measurement": "Tox. O.D.", "setting": "Table 3 Unwashed, 800 μg/ml", "result": ".739"}, {"measurement": "Toxicity Percent", "setting": "Table 3 Unwashed, 800 μg/ml", "result": 29.11, "unit": "%"}, {"measurement": "Toxicity Score", "setting": "Table 3 Unwashed, 800 μg/ml", "result": "2 (26-50% toxicity=2)"}, {"measurement": "Tox. O.D.", "setting": "[1]", "result": ".969"}, {"measurement": "Toxicity Percent", "setting": "[1]", "result": 6.96, "unit": "%"}, {"measurement": "Toxicity Score", "setting": "[1]", "result": "1 (6-25% toxicity=1)"}, {"measurement": "Tox. O.D.", "setting": "[2]", "result": ".827"}, {"measurement": "Toxicity Percent", "setting": "[2]", "result": 20.56, "unit": "%"}, {"measurement": "Toxicity Score", "setting": "[2]", "result": "1 (6-25% toxicity=1)"}, {"measurement": "Tox. O.D.", "setting": "[3]", "result": ".788"}, {"measurement": "Toxicity Percent", "setting": "[3]", "result": 24.30, "unit": "%"}, {"measurement": "Toxicity Score", "setting": "[3]", "result": "1 (6-25% toxicity=1)"}, {"measurement": "Tox. O.D.", "setting": "[4]", "result": ".739"}, {"measurement": "Toxicity Percent", "setting": "[4]", "result": 29.01, "unit": "%"}, {"measurement": "Toxicity Score", "setting": "[4]", "result": "2 (26-50% toxicity=2)"}, {"measurement": "Tox. O.D.", "setting": "[5]", "result": ".783"}, {"measurement": "Toxicity Percent", "setting": "[5]", "result": 22.91, "unit": "%"}, {"measurement": "Toxicity Score", "setting": "[5]", "result": "1 (6-25% toxicity=1)"}, {"measurement": "Tox. O.D.", "setting": "[6]", "result": ".577"}, {"measurement": "Toxicity Percent", "setting": "[6]", "result": 43.15, "unit": "%"}, {"measurement": "Toxicity Score", "setting": "[6]", "result": "2 (26-50% toxicity=2)"}, {"measurement": "Tox. O.D.", "setting": "[7]", "result": ".638"}, {"measurement": "Toxicity Percent", "setting": "[7]", "result": 37.14, "unit": "%"}, {"measurement": "Toxicity Score", "setting": "[7]", "result": "2 (26-50% toxicity=2)"}, {"measurement": "Tox. O.D.", "setting": "[8]", "result": ".786"}, {"measurement": "Toxicity Percent", "setting": "[8]", "result": 22.56, "unit": "%"}, {"measurement": "Toxicity Score", "setting": "[8]", "result": "1 (6-25% toxicity=1)"}, {"measurement": "Tox. O.D.", "setting": "[9]", "result": ".749"}, {"measurement": "Toxicity Percent", "setting": "[9]", "result": 26.26, "unit": "%"}, {"measurement": "Toxicity Score", "setting": "[9]", "result": "2 (26-50% toxicity=2)"}, {"measurement": "Tox. O.D.", "setting": "Table 6, 100 μg/ml", "result": 1.348}, {"measurement": "Toxicity Percent", "setting": "Table 6, 100 μg/ml", "result": 18.15, "unit": "%"}, {"measurement": "Toxicity Score", "setting": "Table 6, 100 μg/ml", "result": "1 (6-25% toxicity=1)"}, {"measurement": "Tox. O.D.", "setting": "Table 6, 200 μg/ml", "result": 1.324}, {"measurement": "Toxicity Percent", "setting": "Table 6, 200 μg/ml", "result": 19.61, "unit": "%"}, {"measurement": "Toxicity Score", "setting": "Table 6, 200 μg/ml", "result": "1 (6-25% toxicity=1)"}, {"measurement": "Tox. O.D.", "setting": "Table 6, 400 μg/ml", "result": 1.146}, {"measurement": "Toxicity Percent", "setting": "Table 6, 400 μg/ml", "result": 30.45, "unit": "%"}, {"measurement": "Toxicity Score", "setting": "Table 6, 400 μg/ml", "result": "2 (26-50% toxicity=2)"}, {"measurement": "Tox. O.D.", "setting": "Table 6, 800 μg/ml", "result": ".890"}, {"measurement": "Toxicity Percent", "setting": "Table 6, 800 μg/ml", "result": 45.96, "unit": "%"}, {"measurement": "Toxicity Score", "setting": "Table 6, 800 μg/ml", "result": "2 (26-50% toxicity=2)"}, {"measurement": "toxicity to cells", "setting": "in vitro, summary statement", "result": "little toxicity to cells"}]}]}
